According to PMC7591906, “pHLIP ICG for delineation of tumors and blood flow during fluorescence-guided surgery” (Scientific Reports, 2020):
Entries after “also recorded” stand apart in the source; their conditions may differ. Peptide text beside a SMILES is read from it. * marks the point of attachment. X1 = CC1(C)C(/C=C/C=C/C=C/C=C2/N(CCCCCC(=O)NCCN3C(=O)CC(*)C3=O)c3ccc4ccccc4c3C2(C)C)=[N+](CCCCS(=O)(=O)[O-])c2ccc3ccccc3c21

Legend:
[1] = target: T1, progesterone receptor B (Homo sapiens, UniProt P06401); assay: Progesterone receptor B radioligand binding assay
T1 construct: purchased Eurofins Panlabs, Inc
T1 sequence (P06401 1-933): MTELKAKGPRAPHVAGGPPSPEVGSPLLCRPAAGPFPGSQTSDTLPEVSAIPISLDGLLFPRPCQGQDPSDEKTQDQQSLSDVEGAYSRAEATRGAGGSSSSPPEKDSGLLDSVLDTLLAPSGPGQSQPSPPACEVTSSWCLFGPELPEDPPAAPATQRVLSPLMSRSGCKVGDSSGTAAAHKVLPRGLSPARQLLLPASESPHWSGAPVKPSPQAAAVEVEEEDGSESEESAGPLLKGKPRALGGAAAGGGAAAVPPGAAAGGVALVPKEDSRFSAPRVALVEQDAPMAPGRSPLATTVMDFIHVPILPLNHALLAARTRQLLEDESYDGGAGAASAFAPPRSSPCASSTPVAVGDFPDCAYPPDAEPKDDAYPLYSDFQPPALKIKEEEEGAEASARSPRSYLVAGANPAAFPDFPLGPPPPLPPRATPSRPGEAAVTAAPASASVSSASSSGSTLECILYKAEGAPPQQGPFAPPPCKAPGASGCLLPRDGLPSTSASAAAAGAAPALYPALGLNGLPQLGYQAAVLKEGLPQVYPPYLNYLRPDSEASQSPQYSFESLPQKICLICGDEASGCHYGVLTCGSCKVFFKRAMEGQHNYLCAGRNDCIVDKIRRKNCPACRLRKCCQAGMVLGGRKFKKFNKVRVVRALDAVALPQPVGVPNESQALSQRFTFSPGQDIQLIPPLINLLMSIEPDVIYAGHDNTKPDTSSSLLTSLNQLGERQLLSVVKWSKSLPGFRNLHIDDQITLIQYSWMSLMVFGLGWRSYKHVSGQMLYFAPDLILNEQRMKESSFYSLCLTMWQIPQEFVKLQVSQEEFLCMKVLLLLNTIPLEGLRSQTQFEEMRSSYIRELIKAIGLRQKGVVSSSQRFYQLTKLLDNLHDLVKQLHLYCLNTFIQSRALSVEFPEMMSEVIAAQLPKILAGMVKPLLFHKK
Protocol: The pHLIP ICG enzyme binding assays were performed by Eurofins Panlabs, Inc. according to standard assay protocols. The following enzymes were used in the binding assay with 2 µM of pHLIP ICG : acetyl cholinesterase; peptidase (angiotensin converting enzyme); ATPase (Na^+/K^+, pig heart); CTSG peptidase (cathepsin G); cyclooxygenases COX-1 and COX-2; monoamine oxidases MAO-A and MAO-B; phosphodiesterases PDE3 and PDE4D2; protein tyrosine kinase (insulin receptor); protein tyrosine kinase (LCK); protein serine/threonine kinase (PKC, non-selective); adenosine A1 and A2A; adenosine transporter; adrenergic α1A, α1B, α1D, α2A, α2B, β1 and β2; norepinephrine transporter (NET); androgen (testosterone); angiotensin AT1; bradykinin B2; calcium channels L-type (benzothiazepine, dihydropyridine, phenylalkylamine); calcium channel N-type; cannabinoid CB1 and CB2; chemokine CCR1; cholecystokinin CCK1 (CCKA) and CCK2 (CCKB); dopamine D1, D2L and D2S; dopamine transporter (DAT); endothelin ETA; estrogen ERα; GABA transporter; GABAAs (flunitrazepam, central; Ro-15-1788, hippocampus and chloride channel, TBOB); glucocorticoid; glutamate (AMPA, kainate, agonism NMDA, glycine NMDA, phencyclidine NMDA, polyamine NMDA, and mGlu5 metabotropic); glycine (strychnine-sensitive); histamine H1 and H2; chemokine CXCR2 (IL-8RB); cysteinyl leukotriene (CysLT1); melanocortin MC1 and MC4; muscarinic M1, M2, M3, and M4; tachykinin NK1; neuropeptide Y Y1; nicotinic acetylcholine α1 (bungarotoxin) and α3β4; opiate δ1 (OP1, DOP), κ (OP2, KOP), and μ (OP3, MOP); platelet activating factor (PAF); potassium channels (KATP and hERG); PPARγ; serotonin (5-hydroxytryptamine) 5-HT1A, 5-HT1B, 5-HT2A, 5-HT2B, 5-HT2C, and 5-HT3; serotonin transporter (SERT); sodium channel (site 2); vasopressin V1A; progesterone (PR-B). The most significant inhibitory effect of pHLIP ICG was observed on progesterone B and was followed by an additional study to identify IC50 values, which were determined by a non-linear least square regression analysis using MathIQTM (ID Business Solutions Ltd., UK). The Ki values were calculated by the equation from Cheng and Prusoff [Cheng, Y., Prusoff, W.H., Biochem. Pharmacol. 22:3099-3108, 1973] using the observed IC50 of pHLIP ICG , the concentration of radioligand employed in the assay, and the historical values for the KD of the ligand (Eurofins Panlabs data). The Hill coefficient (nH), defining the slope of the competitive binding curve, was calculated using MathIQTM. The IC50, Ki, and nH values were established for pHLIP ICG and compared to the known progesterone agonist, R-2050 (Figure S3).
Figure SI,3. […]

[2] = system: 86 enzyme and receptor targets; assay: Safety pharmacology profiling, enzyme and receptor binding panel (Eurofins Panlabs); conditions: 2 µM; all targets except progesterone receptor B
Protocol: The pHLIP ICG enzyme binding assays were performed by Eurofins Panlabs, Inc. according to standard assay protocols. […] The most significant inhibitory effect of pHLIP ICG was observed on progesterone B and was followed by an additional study to identify IC50 values, which were determined by a non-linear least square regression analysis using MathIQTM (ID Business Solutions Ltd., UK). The Ki values were calculated by the equation from Cheng and Prusoff [Cheng, Y., Prusoff, W.H., Biochem. Pharmacol. 22:3099-3108, 1973] using the observed IC50 of pHLIP ICG , the concentration of radioligand employed in the assay, and the historical values for the KD of the ligand (Eurofins Panlabs data). The Hill coefficient (nH), defining the slope of the competitive binding curve, was calculated using MathIQTM. […]

[3] = Cardiovascular telemetry study in conscious Beagle dogs (GLP); type: in vivo; conditions: male dogs, single i.v. bolus 0.072, 0.36, 1.44 mg/kg, up to 24 h post-dose
Protocol: The objective of this GLP study performed at CRL was to evaluate the potential cardiovascular effects of pHLIP ICG in instrumented dogs when administered by i.v. bolus injection using a Latin square design.
Each of the four male dogs received a dose of Reference Item (5 % Ethanol in Phosphate buffered saline (PBS), pH of 7.4 ± 0.2) and three dose levels of pHLIP ICG (0.072, 0.36, and 1.44 mg/kg), with a 7-day washout period between each dose. The dose was administered by i.v. bolus injection at a dose volume of 2.5 mL/kg.
The following cardiovascular parameters were evaluated for all animals from 2 hours prior and up to 24 hours post each dose: systemic blood pressures (systolic, diastolic, mean arterial, and pulse pressure), heart rate, body temperature, and electrocardiographic duration/intervals (PR, QRS, QT, and QTc). Qualitative evaluation of the electrocardiographic waveforms was performed twice prior to each dose (at least 30 minutes apart) and at 5, 15, and 30 minutes, 1, 2, 3, 4, 6, 12, and 24 hours post-dose. Additional evaluations consisted of mortality and clinical observations. There were no mortalities or pHLIP ICG related clinical signs throughout the course of the study.

[4] = Imaging of blood vessels in mice; type: in vivo, athymic female nude mice; conditions: 2.5 nmol single tail vein injection, NIR imaging of leg and ear, five animals
Protocol: Single tail vein administrations of 2.5 nmol of ICG-Cys or pHLIP ICG in sterile PBS or PBS with 5% DMSO or 5% Ethanol (vol:vol) (volume of the injection was 100 μl) were given to athymic female nude mice (strain Hsd Athymic Nude-Foxn1nu) ranging in age from 5 to 6 weeks (obtained from Envigo RMS Inc). Mice were under gas anesthesia, and imaging of mouse leg and ear was performed immediately and at different time points (from 5 min till 120 min) after administration of ICG-Cys or pHLIP ICG using the Stryker 1558 AIM clinical imaging system with L10 AIM Light Source, 1588 AIM Camera and a 10 mm scope and a Novadaq imaging system. Five animals per construct were used in the study.

SMILES: CC(C)C[C@H](NC(=O)[C@H](Cc1ccc(O)cc1)NC(=O)[C@H](C)NC(=O)[C@H](CCCNC(=N)N)NC(=O)[C@H](Cc1c[nH]c2ccccc12)NC(=O)[C@@H]1CCCN1C(=O)[C@H](CC(N)=O)NC(=O)[C@H](CCC(N)=O)NC(=O)[C@H](CC(=O)O)NC(=O)[C@H](CC(=O)O)NC(=O)[C@H](CSC1CC(=O)N(CCNC(=O)CCCCCN2/C(=C/C=C/C=C/C=C/C3=[N+](CCCCS(=O)(=O)[O-])c4ccc5ccccc5c4C3(C)C)C(C)(C)c3c2ccc2ccccc32)C1=O)NC(=O)[C@H](C)N)C(=O)N[C@@H](CC(=O)O)C(=O)N[C@@H](CC(C)C)C(=O)N[C@@H](CC(C)C)C(=O)N[C@@H](Cc1ccccc1)C(=O)N1CCC[C@H]1C(=O)N[C@H](C(=O)N[C@@H](CC(=O)O)C(=O)N[C@H](C(=O)N[C@@H](CC(C)C)C(=O)N[C@@H](CC(C)C)C(=O)N[C@@H](CC(C)C)C(=O)N[C@@H](CC(=O)O)C(=O)N[C@@H](CC(C)C)C(=O)N[C@@H](CC(C)C)C(=O)N[C@@H](Cc1c[nH]c2ccccc12)C(=O)N[C@@H](C)C(=O)O)[C@@H](C)O)[C@@H](C)O (some centres unmarked) [pHLIP ICG] (H-AC(X1)DDQNPWRAYLDLLFPTDTLLLDLLWA-OH)
- IC50 [1]: 640 nM
- Ki [1]: 510 nM
- Inhibitory effect on 86 enzyme and receptor targets [2]: No inhibitory effect was observed
- Cardiovascular effects [3]: no observable effect on systemic blood pressures, heart rate, body temperature, electrocardiographic intervals; also recorded: no effect on systemic blood pressures, heart rate, body temperature, electrocardiographic intervals, or qualitative ECG parameters
- Time for which blood vessels are clearly revealed [4]: up to 2 h
